Assay results reported in patent US9980910B2, “Enteric-coated sodium metabisulfite livestock feed additive for vomitoxin detoxification” (priority 2010, dated 2018).

What was measured:
[1] = tested on: 25-50 lb pigs fed vomitoxin-contaminated corn; conditions: P<0.01
[2] = tested on: pigs; conditions: cited from earlier work
[3] = tested on: 66-278 lbs pigs; experiment: Growth performance of 66-278 lbs pigs fed sodium metabisulfite in clean diets (F6_G07_01); type: in vivo; conditions: level increased from 0 to 0.5 to 1.0% in non-vomitoxin contaminated diets
Excerpt: The data presented in Table 2 confirms that toxic effects begin to occur between 0 and 0.5% sodium metabisulfite in the diet.

[4] = tested on: pigs; conditions: feeding to pigs; cited from earlier work
[5] = Destruction of vomitoxin by sodium metabisulfite in vitro at two pH levels
Method: Sodium metabisulfite was tested for its ability to destroy vomitoxin in vitro at different pH levels. […] For example, when tested at 10 lb/ton, sodium metabisulfite destroyed 70% of the measurable vomitoxin at pH 6.5, but none at pH 3.0. At 20 lbs/ton sodium metabisulfite destroyed over 97% of the vomitoxin at pH 6.5 but only 41% at pH 3.0. Destruction levels less than 10% are considered to be random variation in this assay and not related to treatment. […] Although the levels of sodium metabisulfite required to destroy vomitoxin in this in vitro assay are higher than the “safe” level of 0.35% determined in a previous referenced feeding trial in pigs, other studies (Tables 1 and 3) clearly show positive effects of sodium metabisulfite at levels of 0.125 to 0.25% in vomitoxin-contaminated diets.

[6] = diet containing approximately 5 ppm vomitoxin, 25-55 lb pigs
[7] = vomitoxin-contaminated diet, 5 to 20 lbs/ton of diet (0.25 to 1.0%)

Structure (SMILES) | Reduction of daily feed intake [1, 6] [%] | Reduction of growth rate [1, 6] [%] | Vomitoxin level resulting in complete feed refusal, vomiting, immune suppression, and gastrointestinal lesions [2] | Average daily feed intake (effect in words) [3] | "no-effect" level (no toxic effects) [4] | % destruction of vomitoxin ([5]; pH 3.0, metabisulfite 2.5 lbs/ton) [%] | % destruction of vomitoxin ([5]; pH 3.0, metabisulfite 5 lbs/ton) [%] | % destruction of vomitoxin ([5]; pH 3.0, metabisulfite 20 lbs/ton) [%] | % destruction of vomitoxin ([5]; pH 6.5, metabisulfite 2.5 lbs/ton) [%] | % destruction of vomitoxin ([5]; pH 6.5, metabisulfite 5 lbs/ton) [%] | % destruction of vomitoxin ([5]; pH 6.5, metabisulfite 10 lbs/ton) [%] | Average daily feed intake (ADFI) (effect in words) [1, 7] | Average daily gain (ADG) (effect in words) [1, 7]
CC1=C[C@H]2O[C@@H]3[C@H](O)C[C@](C)([C@@]2(CO)[C@H](O)C1=O)[C@]31CO1 [Vomitoxin, deoxynivalenol] | 20 | 15 | above 5 ppm | – | – | – | – | – | – | – | – | – | –
O=S([O-])S(=O)(=O)[O-].[Na+].[Na+] [sodium metabisulfite, Sodium metabisulfite] | – | – | – | linearly reduced | 0.35 % of the diet | 4.2 | 0.9 | 41 | 0.0 | 0.0 | 70 | improves | improves
